Test results published in US9492471B2, “Methods of treating a disease or disorder associated with Bruton'S Tyrosine Kinase” (Celgene Avilomics Research, Inc., priority 2013, dated 2016).
Where two headings read alike, the source gives them in different places.

Columns and labels:
Assay in all cases: HotSpot kinase profiling
Assay type in all cases: biochemical
MINK/MINK1 = target: T1, MINK/MINK1 (Homo sapiens, UniProt Q8N4C8)
T1 construct: purchased Reaction Biology Corp
How it was run: (§1)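 Radio-isotope P81 filtration format. Substrate + required cofactors in reaction buffer, kinase added, 2 h RT. Stop, wash with 0.1% phosphoric acid, detect. % inhibition vs DMSO; mean of duplicates where repeated.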

LIMK1 = target: T2, LIMK1 (Homo sapiens, UniProt P53667)
T2 construct: purchased Reaction Biology Corp
How it was run: as §1

EPHB1 = target: T3, EPHB1 (Homo sapiens, UniProt P54762)
T3 construct: purchased Reaction Biology Corp
T3 sequence (P54762 18-984): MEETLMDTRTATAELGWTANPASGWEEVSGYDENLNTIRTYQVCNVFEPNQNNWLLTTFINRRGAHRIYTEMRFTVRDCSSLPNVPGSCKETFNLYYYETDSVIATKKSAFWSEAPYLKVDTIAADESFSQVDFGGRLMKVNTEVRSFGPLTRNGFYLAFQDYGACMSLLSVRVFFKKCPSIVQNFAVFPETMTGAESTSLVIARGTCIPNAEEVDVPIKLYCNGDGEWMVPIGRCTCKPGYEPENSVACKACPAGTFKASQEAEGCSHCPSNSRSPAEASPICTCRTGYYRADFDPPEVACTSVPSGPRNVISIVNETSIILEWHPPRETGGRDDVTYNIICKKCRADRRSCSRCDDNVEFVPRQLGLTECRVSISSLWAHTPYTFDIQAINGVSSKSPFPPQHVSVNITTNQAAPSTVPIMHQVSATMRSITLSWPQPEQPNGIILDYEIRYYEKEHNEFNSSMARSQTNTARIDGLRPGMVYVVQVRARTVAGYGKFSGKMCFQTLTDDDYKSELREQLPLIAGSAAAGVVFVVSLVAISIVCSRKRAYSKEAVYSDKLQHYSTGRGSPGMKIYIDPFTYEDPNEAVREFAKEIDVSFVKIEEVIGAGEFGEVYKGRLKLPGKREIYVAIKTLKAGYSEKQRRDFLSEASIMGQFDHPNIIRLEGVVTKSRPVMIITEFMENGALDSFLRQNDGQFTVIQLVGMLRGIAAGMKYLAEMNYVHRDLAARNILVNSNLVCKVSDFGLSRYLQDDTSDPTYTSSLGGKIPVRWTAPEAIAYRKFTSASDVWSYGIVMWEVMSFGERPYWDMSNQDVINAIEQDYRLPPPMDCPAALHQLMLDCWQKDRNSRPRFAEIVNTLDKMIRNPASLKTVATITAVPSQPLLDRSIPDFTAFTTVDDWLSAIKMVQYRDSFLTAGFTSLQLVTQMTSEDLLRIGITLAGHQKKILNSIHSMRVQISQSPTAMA
How it was run: as §1

ARK5/NUAK1 = target: T4, ARK5/NUAK1 (Homo sapiens, UniProt O60285)
T4 construct: purchased Reaction Biology Corp
T4 sequence (O60285 1-661): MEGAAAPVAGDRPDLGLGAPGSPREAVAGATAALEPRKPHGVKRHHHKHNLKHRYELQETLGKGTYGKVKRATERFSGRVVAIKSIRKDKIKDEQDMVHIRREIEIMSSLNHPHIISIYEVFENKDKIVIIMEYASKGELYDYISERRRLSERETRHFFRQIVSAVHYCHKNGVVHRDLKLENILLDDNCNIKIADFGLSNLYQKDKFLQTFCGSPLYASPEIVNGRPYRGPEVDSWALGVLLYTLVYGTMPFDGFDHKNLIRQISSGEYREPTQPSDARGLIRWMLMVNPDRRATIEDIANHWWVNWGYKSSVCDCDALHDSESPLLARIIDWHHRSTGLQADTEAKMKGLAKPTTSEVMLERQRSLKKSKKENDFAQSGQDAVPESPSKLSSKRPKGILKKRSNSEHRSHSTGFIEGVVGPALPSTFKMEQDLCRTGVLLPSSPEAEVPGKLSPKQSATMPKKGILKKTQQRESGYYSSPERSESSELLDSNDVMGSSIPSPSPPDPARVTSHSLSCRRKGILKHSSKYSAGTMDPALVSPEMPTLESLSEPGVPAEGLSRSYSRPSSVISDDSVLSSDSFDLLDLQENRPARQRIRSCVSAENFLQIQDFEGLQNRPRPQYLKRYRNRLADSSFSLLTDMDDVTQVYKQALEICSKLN
How it was run: as §1

LIMK2 = target: T5, LIMK2 (Homo sapiens, UniProt P53671)
T5 construct: purchased Reaction Biology Corp
How it was run: as §1

DRAK1/STK17A = target: T6, DRAK1/STK17A (Homo sapiens, UniProt Q9UEE5)
T6 construct: purchased Reaction Biology Corp
T6 sequence (Q9UEE5 1-414): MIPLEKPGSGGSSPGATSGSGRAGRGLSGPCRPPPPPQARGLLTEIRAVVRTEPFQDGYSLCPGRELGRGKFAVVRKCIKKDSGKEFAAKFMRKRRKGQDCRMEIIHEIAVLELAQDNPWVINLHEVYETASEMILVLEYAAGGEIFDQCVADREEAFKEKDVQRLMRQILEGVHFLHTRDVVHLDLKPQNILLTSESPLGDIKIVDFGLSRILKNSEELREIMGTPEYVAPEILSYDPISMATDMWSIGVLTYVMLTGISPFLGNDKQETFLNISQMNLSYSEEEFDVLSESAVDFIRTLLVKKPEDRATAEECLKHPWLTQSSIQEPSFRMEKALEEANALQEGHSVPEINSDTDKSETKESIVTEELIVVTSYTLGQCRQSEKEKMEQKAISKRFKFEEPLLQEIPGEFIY
How it was run: as §1

[1] = read-out: % Enzyme Activity (relative to DMSO controls) Run 1
[2] = read-out: % Enzyme Activity (relative to DMSO controls) Run 2

T2 sequence (P53667 whole entry): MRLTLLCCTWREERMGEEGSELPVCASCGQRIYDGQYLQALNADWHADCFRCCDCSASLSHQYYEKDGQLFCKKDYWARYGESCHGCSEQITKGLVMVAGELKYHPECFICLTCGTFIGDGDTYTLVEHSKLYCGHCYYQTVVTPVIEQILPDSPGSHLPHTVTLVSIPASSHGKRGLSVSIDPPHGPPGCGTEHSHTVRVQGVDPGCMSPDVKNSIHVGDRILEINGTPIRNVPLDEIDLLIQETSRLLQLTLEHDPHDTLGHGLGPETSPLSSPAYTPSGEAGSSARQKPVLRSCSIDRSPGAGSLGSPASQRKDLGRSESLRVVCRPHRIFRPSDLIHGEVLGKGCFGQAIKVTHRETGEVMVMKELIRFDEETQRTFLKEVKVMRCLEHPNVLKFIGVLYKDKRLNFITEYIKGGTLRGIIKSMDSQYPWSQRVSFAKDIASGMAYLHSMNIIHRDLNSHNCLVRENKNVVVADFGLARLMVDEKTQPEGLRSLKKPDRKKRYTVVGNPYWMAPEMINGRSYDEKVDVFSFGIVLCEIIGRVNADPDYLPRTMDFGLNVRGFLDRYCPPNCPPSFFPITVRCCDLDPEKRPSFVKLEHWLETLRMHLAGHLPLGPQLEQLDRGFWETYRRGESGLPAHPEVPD
T5 sequence (P53671 whole entry): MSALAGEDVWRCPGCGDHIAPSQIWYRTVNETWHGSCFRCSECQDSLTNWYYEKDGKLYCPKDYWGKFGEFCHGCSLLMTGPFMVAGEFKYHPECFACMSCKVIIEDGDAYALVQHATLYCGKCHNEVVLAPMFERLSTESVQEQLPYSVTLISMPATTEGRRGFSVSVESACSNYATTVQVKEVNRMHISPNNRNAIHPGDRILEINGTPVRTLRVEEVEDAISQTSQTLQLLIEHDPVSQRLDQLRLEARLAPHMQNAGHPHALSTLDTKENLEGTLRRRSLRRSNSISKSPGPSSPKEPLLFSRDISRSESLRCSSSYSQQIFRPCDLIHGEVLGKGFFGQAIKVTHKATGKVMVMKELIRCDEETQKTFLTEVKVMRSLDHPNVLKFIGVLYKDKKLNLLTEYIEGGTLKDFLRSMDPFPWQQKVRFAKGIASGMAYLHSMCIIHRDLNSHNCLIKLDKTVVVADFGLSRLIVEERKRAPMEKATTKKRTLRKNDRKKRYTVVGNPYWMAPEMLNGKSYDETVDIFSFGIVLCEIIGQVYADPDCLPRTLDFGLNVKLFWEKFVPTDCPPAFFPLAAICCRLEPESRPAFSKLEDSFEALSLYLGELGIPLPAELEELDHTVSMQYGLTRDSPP
T1 sequence (Q8N4C8 whole entry): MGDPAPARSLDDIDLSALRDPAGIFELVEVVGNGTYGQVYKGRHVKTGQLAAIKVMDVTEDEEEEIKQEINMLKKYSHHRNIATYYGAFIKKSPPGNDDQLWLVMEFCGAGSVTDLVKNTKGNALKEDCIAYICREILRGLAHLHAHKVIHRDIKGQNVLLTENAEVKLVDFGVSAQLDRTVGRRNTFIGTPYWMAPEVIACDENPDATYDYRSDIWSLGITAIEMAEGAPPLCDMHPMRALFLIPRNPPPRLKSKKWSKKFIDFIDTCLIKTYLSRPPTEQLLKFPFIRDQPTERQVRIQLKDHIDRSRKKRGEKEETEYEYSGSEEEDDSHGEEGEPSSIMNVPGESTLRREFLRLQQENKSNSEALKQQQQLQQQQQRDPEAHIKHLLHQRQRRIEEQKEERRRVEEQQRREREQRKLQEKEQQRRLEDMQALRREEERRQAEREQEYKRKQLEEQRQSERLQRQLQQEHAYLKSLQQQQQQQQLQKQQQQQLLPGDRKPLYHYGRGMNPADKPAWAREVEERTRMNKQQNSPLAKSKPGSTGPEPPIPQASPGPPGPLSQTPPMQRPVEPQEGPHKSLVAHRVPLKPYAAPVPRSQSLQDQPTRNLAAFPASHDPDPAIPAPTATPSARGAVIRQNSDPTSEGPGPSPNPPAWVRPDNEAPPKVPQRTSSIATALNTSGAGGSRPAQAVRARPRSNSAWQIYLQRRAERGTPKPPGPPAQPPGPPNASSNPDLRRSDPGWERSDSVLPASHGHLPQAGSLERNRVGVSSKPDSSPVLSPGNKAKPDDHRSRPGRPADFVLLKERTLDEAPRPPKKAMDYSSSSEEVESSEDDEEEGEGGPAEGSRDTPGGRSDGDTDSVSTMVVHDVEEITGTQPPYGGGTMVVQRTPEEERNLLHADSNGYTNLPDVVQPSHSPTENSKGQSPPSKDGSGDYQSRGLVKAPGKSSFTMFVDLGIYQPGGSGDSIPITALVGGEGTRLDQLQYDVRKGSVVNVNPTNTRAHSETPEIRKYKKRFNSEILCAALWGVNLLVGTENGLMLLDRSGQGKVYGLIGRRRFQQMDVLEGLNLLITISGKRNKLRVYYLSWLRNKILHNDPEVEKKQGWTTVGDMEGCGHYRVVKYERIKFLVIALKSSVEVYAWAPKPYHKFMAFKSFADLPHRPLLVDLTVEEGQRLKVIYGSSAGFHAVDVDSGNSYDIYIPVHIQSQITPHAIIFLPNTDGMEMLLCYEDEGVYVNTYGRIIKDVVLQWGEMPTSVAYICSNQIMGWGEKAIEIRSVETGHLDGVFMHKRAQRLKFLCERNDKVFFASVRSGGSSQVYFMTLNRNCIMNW

`C=CC(=O)Nc1cccc(Nc2nc(Nc3ccc(OCCOC)c(F)c3)ncc2F)c1` [Compound 2] gave an inhibition at 3 µM (MINK/MINK1) of 0.9%, a remaining activity at 3 µM (MINK/MINK1; [1]) of 101% and a remaining activity at 3 µM (MINK/MINK1; [2]) of 97.5%. The inhibition at 3 µM (LIMK1) was 38.8%, the remaining activity at 3 µM (LIMK1; [1]) was 61% and the remaining activity at 3 µM (LIMK1; [2]) was 61.4%. The inhibition at 3 µM (EPHB1) was 20.4%, the remaining activity at 3 µM (EPHB1; [1]) was 79.5% and the remaining activity at 3 µM (EPHB1; [2]) was 79.7%. It also gave an inhibition at 3 µM (ARK5/NUAK1) of 86.7%, a remaining activity at 3 µM (ARK5/NUAK1; [1]) of 13.3% and a remaining activity at 3 µM (ARK5/NUAK1; [2]) of 13.3%. It also gave an inhibition at 3 µM (LIMK2) of -0.86%, a remaining activity at 3 µM (LIMK2; [1]) of 101% and a remaining activity at 3 µM (LIMK2; [2]) of 101%. For the same compound, the inhibition at 3 µM (DRAK1/STK17A) was 18.2%, the remaining activity at 3 µM (DRAK1/STK17A; [1]) was 82.9% and the remaining activity at 3 µM (DRAK1/STK17A; [2]) was 80.6%.
